According to US5763423A, “Pharmaceutical compositions, novel uses, and novel form of tocopherylphosphocholine” (Clarion Pharmaeuticals Inc., priority 1996, dated 1998):
Entries after “also recorded” stand apart in the source; their conditions may differ.

Experiments:
RAW 264.7 cells = assay: Chemiluminescence (CL) assay, inhibition of macrophage activation by PMA; conditions: for inhibition at 1 µM / inhibition at 3 µM / inhibition at 10 µM / inhibition at 30 µM: Mus musculus, RAW264.7, read-out: % inhibition of macrophage activation by PMA; for anti-inflammatory activity (in words): 1 to 30 μM
[1] = test system: Buffalo Green Monkey Kidney cells; assay: Toxicity to uninfected cells (rounding and/or detachment, 24 hr); type: cell-based; design: key to Toxicity 24 hr: Not toxic
Protocol: (§1) 1. Buffalo Green Monkey Kidney cells, obtained from Dr. G. Sedmak, City of Milwaukee, Public Health Department Virology Laboratory, are plated at a density of 7×10^4 cells per well in a standard flat bottom 96 well cell culture plate. The cells are contained in a volume of 200 μl Dulbecco's Modified Eagles Medium (DMEM) containing 10% serum [1:1 mixture of fetal bovine serum and defined supplemented calf serum (Hyclone, Inc., Ogden, Utah), 10 mM HEPES buffer (pH 7.2), 100 U/ml penicillin and 100 μg/ml streptomycin sulfate]. HEPES and antibiotics are obtained from Sigma Chemical Co. (St. Louis, Mo.). Two wells are plated for each of the following samples: compound CPR-2001, cell control (cells only), virus control (cells infected but not treated), vehicle control (solvent for compound, 9:1 dimethylsulfoxide:ethanol), and cell counts.
(§2) 2. The cultures are incubated at 37° C. with 5% CO2 until a monolayer of cells is formed on the bottom of each well (usually overnight).
(§3) 3. The media is removed from the wells by aspiration. The cells are refed with media containing the desired concentration of test compound CPR-2001 (100 μM final concentration), media only (cell control and virus control samples), or solvent (9:1, DMSO:ethanol) at a final concentration of 0.33%. Compound CPR-2001 is dissolved at a stock concentration of 30 mM and diluted 300-fold. The cell count wells receive media only.
(§4) 4. The cultures are incubated for 24 hr at 37° C. with 5% CO2.
5. At the end of 24 hr, each well is scored for the presence of toxicity (cells exposed to compound but not infected) as indicated by rounding and/or detachment of the cells from the plate. Scoring is as follows: 1+, 25% of cells rounded; 2+, 25 to 50% of cells rounded; 3+, 75% of cells rounded; 4+, 100% of cells rounded.

[2] = Liposome particle size by laser-light scattering (QELS); type: physicochemical; conditions: 10 micromoles
From the text: […] The solution is transferred to a 16×120 mm screw-capped tube. The tube is placed, uncapped, inside a 1×8 inch boiling tube with B24/40 standard glass fitting. Inside the boiling tube, in the space between the boiling tube and the smaller screw-capped tube, there is a small amount of distilled water to aid thermal contact between the inner and outer tube. The boiling tube is placed on a rotary evaporator under reduced pressure to evaporate the chloroform and leave the lipid as a thin film in the lower portion of the screw-capped tube. The boiling tube is partly immersed in a water bath at 37° C. during the evaporation to aid the process.
(§5) Once a thin film has been formed, the screw-capped tube is removed from the boiling tube, and one ml. of aqueous solution is added to it. The tube is capped and immersed in a water bath at 75° C. to aid swelling of the lipid. Swelling of the film is observed to occur when the film becomes cloudy, and is, with agitation, dislodged from the walls of the tube to give a cloudy suspension in the aqueous medium. This suspension is found to consist of liposomes by the application of two techniques. First, laser-light scattering, or QELS, reveal the presence of particles of 658 nm in diameter in one determination, 1468 nm in another.
In a second preparation, 10 micromoles of CPR 2001 are taken through the identical procedure described above. […]

Candida albicans = assay: Antifungal assay, Candida albicans; type: cell-based
Protocol: (§6) 1. 10^4 Cells (either C. albicans or C. neoformans) are placed in wells of a 96-well plate within a total volume of 90 μl. Cells are grown in RPMI-1640 plus 10% FCS.
(§7) 2. Add 10 μl of control or drug to be evaluated (CPR-2001):
(§8) Fungizone (2.5 μg/ml and 5.0 μg/ml); and
(§9) 3. Incubate for 48 hours at 37° C.
(§10) 5. Plate onto Sabourand plates and incubate overnight at 37° C.; and
(§11) 6. Count and record colonies.
(§12) All samples are tested in duplicate in two separate experiments. The data are then averaged to obtain the following results in Table 2.

[3] = Electron microscopy of liposomes; type: physicochemical
Protocol: Five micromoles of CPR-2001 are dissolved in about 1 ml. of chloroform. The solution is transferred to a 16×120 mm screw-capped tube. The tube is placed, uncapped, inside a 1×8 inch boiling tube with B24/40 standard glass fitting. Inside the boiling tube, in the space between the boiling tube and the smaller screw-capped tube, there is a small amount of distilled water to aid thermal contact between the inner and outer tube. The boiling tube is placed on a rotary evaporator under reduced pressure to evaporate the chloroform and leave the lipid as a thin film in the lower portion of the screw-capped tube. The boiling tube is partly immersed in a water bath at 37° C. during the evaporation to aid the process.
as §5, with “another. […]” for “another.”

Poliovirus Type III [4] = type: cell-based; conditions: 100 μM, 48 hr
[5] = Anti-PAF activity in anesthetized guinea pigs (total pulmonary resistance); type: in vivo; conditions: for TPR after PAF, % of Controls: PAF controls 183.36; for PAF antagonist activity / TPR (in words): 1, 3, 10, 30 and 50 μM per kg
Poliovirus Type III [6] = type: cell-based; conditions: 100 μM, 48 hr; remark: listed apart in the source
[7] = test system: Herpes simplex virus type-1; assay: Viral yield reduction assay, Herpes Simplex Virus Type 1; type: cell-based, HSV-1 KOS strain (in Buffalo Green Monkey Kidney cells)
Protocol: (§13) The first assay is for inhibition of cytopathic effects (CPE) caused by viral infection of the cells and the second is a standard viral yield reduction assay. This yield reduction assay is a modification of the general method described by Erlich et al., Ann. NY Acad. Sci. 130, 5-16 (1965).
as §1, §2, §3, §4
7. […]
10. After scoring for viral CPE, the yield of infectious virus in each well is measured by standard plaque assay on Vero cells (ATCC #CCL81). […] Excess stain is rinsed from the cells, the number of plaques are counted and the yield of virus in the original sample is calculated.

[8] = test system: Herpes simplex virus type-1; assay: Inhibition of cytopathic effects (CPE), Herpes Simplex Virus Type 1; type: cell-based, HSV-1 KOS strain (in Buffalo Green Monkey Kidney cells); conditions: 100 μM, 48 hr
Protocol: as §13, §1
2. […]
9. At the end of 48 hr, each well is scored for the presence of CPE as indicated by rounding and/or detachment of the cells from the plate. […]

Cryptococcus neoformans = assay: Antifungal assay, Cryptococcus neoformans; type: cell-based
Protocol: as §6, §7, §8, §9, §10, §11, §12

[9] = increasing concentration, 1 to 100 μg/ml

## CC1=C(/C=C/C(C)=C/C=C/C(C)=C/C(=O)O)C(C)(C)CCC1 [Retinoic Acid, retinoic acid]
RAW 264.7 cells
  inhibition at 1 µM: 2%
  inhibition at 3 µM: 6%
  inhibition at 10 µM: 3%
  inhibition at 30 µM: 6%

## Cc1c(C)c2c(c(C)c1OP(=O)([O-])OCC[N+](C)(C)C)CCC(C)(CCCC(C)CCCC(C)CCCC(C)C)O2 (stereo not drawn) [CPR-2001, α-tocopherolphosphocholine]
[1]; Table 1A, 100 μM, 24 hr
  Toxicity: N-±
[1]; Table 1B, 100 μM, 24 hr
  Toxicity 24 hr: N
[1]; at antivirally effective levels
  Toxicity (in words): No apparent cytotoxicity; also recorded: not toxic
[2]; after about 10 minutes sonication at 75° C.
  particle size of liposomes (QELS): 102 nm
[2]; before sonication
  particle size of liposomes (QELS): greater than 5,000 nm
RAW 264.7 cells
  anti-inflammatory activity (in words): marked dose-related anti-inflammatory activity
  inhibition at 1 µM: 5%
  inhibition at 3 µM: 13%
  inhibition at 10 µM: 31%
  inhibition at 30 µM: 56%
RAW 264.7 cells; listed as CPR2001
  anti-inflammatory activity (in words): antiinflammatory activity markedly increases
Candida albicans; Candida albicans, 1 mcg/ml, 48 hours
  inhibition at 1 µg/mL: 25%
Candida albicans; Candida albicans, 10 mcg/ml, 48 hours
  inhibition at 10 µg/mL: 40%
Candida albicans; Candida albicans, 100 mcg/ml, 48 hours
  inhibition at 100 µg/mL: 76%
Candida albicans; [9]
  percent of fungal inhibition (in words): the percent of fungal inhibition also increases
[3]; 5 micromoles, not sonicated
  structure of particles by electron microscopy: characteristic concentric lamellar structure of liposomes
[3]; 10 micromoles, after sonication
  structure of particles by electron microscopy: still multilamellar, but smaller
Poliovirus Type III [4]
  Titer: 2.7 × 10^6 pfu/ml
Poliovirus Type III [4]; compared to virus control
  Fold-Reduction of virus yield: 10.7 fold
[5]; 1 μM/kg i.v.
  TPR after PAF, % of Controls: 193.75 % of Controls
[5]; 3 μM/kg i.v.
  TPR after PAF, % of Controls: 124.58 % of Controls
[5]; 10 μM/kg i.v.
  TPR after PAF, % of Controls: 98.19 % of Controls
[5]; 30 μM/kg i.v.
  TPR after PAF, % of Controls: 19.60 % of Controls
[5]; 50 μM/kg i.v.
  TPR after PAF, % of Controls: 8.33 % of Controls
[5]
  PAF antagonist activity / TPR (in words): Decreases of TPR in a dose-related way
[5]; listed as α-tocopherolphosphocholine
  PAF antagonist activity / TPR (in words): marked PAF antagonist activity
Poliovirus Type III [6]
  CPE: 2+ (25 to 50% of cells rounded)
  development of viral CPE (in words): inhibits the development of viral CPE
[7]; 100 μM
  Virus Yields (48 Hours): 5.5 × 10^4 PFU/ml
[7]; 100 μM, 48 hr, compared to virus and vehicle control
  Reduction of virus yield (fold reduction): 18 fold
[7]; Human alphaherpesvirus 1, BGMK, in Chlorocebus sabaeus, 48 hr, virus control 1.00, read-out: Virus Yields (48 Hours), Yield
  activity at 100 µM: 5.5%
[8]
  Viral CPE: 1+ (<25% of cells rounded)
  development of viral cytopathic effect (in words): markedly inhibits the development of viral cytopathic effect
Cryptococcus neoformans; Cryptococcus neoformans, 1 mcg/ml, 48 hours
  inhibition at 1 µg/mL: 10%
Cryptococcus neoformans; Cryptococcus neoformans, 10 mcg/ml, 48 hours
  inhibition at 10 µg/mL: 40%
Cryptococcus neoformans; Cryptococcus neoformans, 100 mcg/ml, 48 hours
  inhibition at 100 µg/mL: 73%
Cryptococcus neoformans; [9]
  percent of fungal inhibition (in words): the percent of fungal inhibition also increases

## Cc1c(C)c2c(c(C)c1O)CCC(C)(CCCC(C)CCCC(C)CCCC(C)C)O2 (stereo not drawn) [α-Tocopherol, α-tocopherol]
RAW 264.7 cells
  inhibition at 1 µM: -3%
  inhibition at 3 µM: -6%
  inhibition at 10 µM: -6%
  inhibition at 30 µM: -14%
